In brackets after ≈: the same amount, converted by molar mass. Where a SMILES comes first, the peptide text is derived from it.

Here are results for one compound from patent US20250090441A1, “ANTI-CARIES PEPTIDES WITH ANTIMICROBIAL AND REMINERALIZING PROPERTIES AND METHODS THEREOF” (THE UNIVERSITY OF HONG KONG, priority 2023, published 2025).

Experiment [1] concerns Streptococcus mutans, UA159. Description: MIC and MBC/MFC test. Format: cell-based. The method, then:
The antimicrobial properties of synthesized peptides against bacteria and fungi were evaluated using minimum inhibitory concentration (MIC) and minimum bactericidal/fungicidal concentration (MBC/MFC) tests (Wiegand et al. 2008). The tested species include Streptococcus mutans, UA159; Lacticaseibacillus casei, American Type Culture Collection (ATCC) 334; and Candida albicans, ATCC 90028. A 10 μL aliquot of bacterial culture (10^6 CFU/mL) in brain heart infusion (BHI) broth was added to 100 μL serial two-fold dilutions of experimental solutions. The optical density values at 660 nm were measured after 18 h of incubation. To determine the MBC, 10 μL of bacterial culture was taken from the well of MIC, and wells before and after the well of MIC, and transferred to blood agar. The test protocol for fungi was similar: the culture medium was a Roswell Park Memorial Institute (RPMI) 1640 Medium, the absorbance was measured at 520 nm, and Sabouraud dextrose agar was used for the MFC test. Chlorhexidine and medium were used as the positive and negative controls.

Experiment [2] can be described thus: Remineralizing effects on enamel, chemical pH cycling model (SEM-EDS, Micro-CT, XRD). Details: species or system human. The note with it: 160 μM twice daily, pH cycling 8 days, n = 8. The protocol: Ten enamel slices were cut from extracted sound human molars. Each slice was separated into four blocks. A total of 40 enamel blocks were prepared. Then the surface of the enamel block was half-covered by an acid-resistant varnish. The exposed half was the experimental surface, and the varnished half was the internal control. Before use, all the enamel blocks were sterilized via autoclave (Niu et al. 2021d; Yu et al. 2018).
The pH-cycling procedure (16 h-demineralization at pH 4.5 and 8 h-remineralization at pH 7.0) was performed to enamel blocks for 8 days. The formula for demineralizing/remineralizing solution was employed from a previous study (Yu et al. 2018). The enamel blocks from the same enamel slice were treated twice daily with 160 μM GAPI (GAPI Group), 160 μM gallic acid (GA Group), 160 μM polyphemusin-I (PI Group), and sterile deionized water (Water Group). All enamel blocks after pH cycling were involved in sequent assessments.
The structure of the enamel surface was examined using SEM (n=8 per group) (Niu et al. 2021d). The elemental analysis of enamel surface was conducted using affiliated energy-dispersive X-ray spectroscopy (EDS). The calcium to phosphorus molar ratio was calculated (Niu et al. 2022). The mineral loss and lesion depth on the enamel blocks were assessed using microcomputed tomography (Micro-CT) (1076, SkyScan, Antwerp, Belgium) (n=8 per group) (Niu et al. 2022). The diffraction patterns of the enamel blocks were evaluated using X-ray diffraction analysis (XRD) (Rigaku SmartLab 9 kW, […]) (n=2 per group) (Yu et al. 2018).

Experiment [3] concerns S. mutans biofilm (ATCC 35668) on dentine blocks. Description: Antibiofilm effect on dentine, biofilm remineralization cycling model (CLSM, CFU). Format: cell-based, Streptococcus mutans. The note with it: 160 μM GAPI, 7 days cycling, n = 8. An excerpt: Dentine slices, 2 mm thick, were cut from sound extracted third molars. Ultra-fine 4000-grit sandpaper was used to polish these slices. Slices with defects were eliminated based on a stereomicroscope observation. A total of forty dentine slices were selected. Each slice was separated into two blocks and assigned to two groups. Nail varnish was used to coat half of the blocks as an internal control. S. mutans American Type Culture Collection 35668 was utilized in the present study. All the dentine blocks were placed into S. mutans culture (10^8 cells/mL) in a brain-heart infusion (BHI) broth containing 5% glucose to generate artificial caries. After a 3-day anaerobic culture at 37° C., the depth of the caries lesion surface was around 96 μm, which was observed using micro-computed tomography (micro-CT). […]
CLSM (Fluoview FV 1000, Olympus, Tokyo, Japan) was utilized to capture images to assess the S. mutans biofilm viability (n=8 for each group). […] The red-green ratio represented the dead-live ratio calculated using Image J version 1.53 t (National Institute of Health, Bethesda, MD, USA).
To determine the S. mutans biofilm growth kinetics, the colony-forming units (CFUs) were counted (n=8 for each group). […] All the plates were cultured anaerobically for 48 h at 37° C. before the CFUs were counted. The log CFU was calculated for a statistical analysis.

Setting [4] is: Streptococcus mutans (UA159), μM.

The compound `CC(C)[C@@H]1NC(=O)[C@H](CCCN=C(N)N)NC(=O)[C@H](Cc2ccccc2)NC(=O)[C@@H](NC(=O)[C@H](Cc2c[nH]c3ccccc23)NC(=O)[C@H](CCCN=C(N)N)NC(=O)[C@H](CCCN=C(N)N)NC(=O)c2cc(O)c(O)c(O)c2)CSSC[C@@H](C(=O)N[C@@H](CCCN=C(N)N)C(=O)O)NC(=O)[C@H](CCCCN)NC(=O)[C@H](CCCN=C(N)N)NC(=O)[C@H](Cc2ccc(O)cc2)NC(=O)[C@@H]2CSSC[C@H](NC1=O)C(=O)N[C@@H](Cc1ccc(O)cc1)C(=O)N[C@@H](CCCN=C(N)N)C(=O)NCC(=O)N[C@@H](Cc1ccccc1)C(=O)N2` [GAPI, Gallic-Acid-Polyphemusin-I] (HELM PEPTIDE1{[O=C(c1cc(O)c(O)c(O)c1)[*:2]].R.R.W.C.F.R.V.C.Y.R.G.F.C.Y.R.K.C.R}$PEPTIDE1,PEPTIDE1,5:R3-18:R3|PEPTIDE1,PEPTIDE1,9:R3-14:R3$$$V2.0) yielded a minimum inhibitory concentration in experiment [1] (Streptococcus mutans) of 40 µM (≈ 104 µg/mL). In experiment [1] (setting [4]), the MBC/MFC amounted to 80 and the MIC was 40. The “Calcium to phosphate molar ratio” value in experiment [2] (EDS) was determined as 1.81 ± 0.05. In addition, in experiment [2] (Micro-CT), the Lesion depth came to 64 ± 7 μm and the Mineral loss was determined as 0.89 ± 0.20 gHApcm^−3. Moreover, in experiment [3] (CLSM), the “Viability: Dead-to-live ratio” value was 0.77±0.13. Moreover, the “Kinectics: Log10 CFU” value in experiment [3] came out at 7.45±0.32.
